Results from the supplement of paper PMC10627819.

Columns and labels:
Assay in all cases: Bliss interaction score (quartile over a dose matrix) (fitness difference); higher = more antagonism (negative = synergy)
B. subtilis 168 = system: B. subtilis 168
Procedure, shortened: (§1)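 Fitness here means normalised growth, inferred for single drugs from the combination data. Growth was OD595 at entry into stationary phase, divided by the plate's robust no-drug mean and capped at 1. The Bliss score is observed minus expected fitness, with the expectation being the product, and its quartiles span technical, biological and donor/recipient replicates.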

S. pneumoniae D39V = system: S. pneumoniae D39V
Procedure, shortened: as §1

S. aureus DSM 20231 = system: S. aureus DSM 20231
Procedure, shortened: as §1

S. aureus Newman = system: S. aureus Newman
Procedure, shortened: as §1
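Further: first quartile when negative (synergy) and third quartile when positive (antagonism).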

Structure (SMILES)	Bliss interaction score (B. subtilis 168)	Bliss interaction score (S. pneumoniae D39V)	Bliss interaction score (S. aureus DSM 20231)	Bliss interaction score (S. aureus Newman)	Bliss interaction score (B. subtilis 168; main component drawn)	Bliss interaction score (S. pneumoniae D39V; main component drawn)	Bliss interaction score (S. aureus DSM 20231; main component drawn)	Bliss interaction score (S. aureus Newman; main component drawn)
CO/N=C(\C(=O)N[C@@H]1C(=O)N2C(C(=O)O)=C(COC(N)=O)CS[C@H]12)c1ccco1 [Cefuroxime] + C[C@@H](O)[C@H]1C(=O)N2C(C(=O)O)=C(SCCNC=N)C[C@H]12 [Imipenem]	0.0678	0.0481	0.145	-0.0353	–	–	–	–
CO/N=C(\C(=O)N[C@@H]1C(=O)N2C(C(=O)O)=C(COC(N)=O)CS[C@H]12)c1ccco1 [Cefuroxime] + N[C@@H]1CONC1=O [CycloserineD]	-0.0514	0.0839	0.114	-0.0647	–	–	–	–
CC1(C)S[C@@H]2[C@H](NC(=O)Cc3ccccc3)C(=O)N2[C@H]1C(=O)O [PenicillinG] + CN[C@@H]1[C@H](O[C@H]2[C@H](O[C@H]3[C@H](O)[C@@H](O)[C@H](N=C(N)N)[C@@H](O)[C@@H]3N=C(N)N)O[C@@H](C)[C@]2(O)C=O)O[C@@H](CO)[C@H](O)[C@H]1O [Streptomycin]	0.0319	-0.119	-0.0333	-0.0403	–	–	–	–
Cc1ncc([N+](=O)[O-])n1CCO [Metronidazole] + Clc1ccc(COC(Cn2ccnc2)c2ccc(Cl)cc2Cl)c(Cl)c1 [Miconazole]	0.0471	0.0478	0.0327	0.0522	–	–	–	–
N#CC(C#N)=NNc1cccc(Cl)c1 [CCCP] + O=C(O[C@@H]1Cc2c(O)cc(O)cc2O[C@@H]1c1cc(O)c(O)c(O)c1)c1cc(O)c(O)c(O)c1 [EGCG]	-0.0905	0.105	-0.0526	-0.0367	–	–	–	–
O=C(O)c1cn(C2CC2)c2cc(N3CCNCC3)c(F)cc2c1=O [Ciprofloxacin] + CN(C)[C@@H]1C(O)=C(C(N)=O)C(=O)[C@@]2(O)C(O)=C3C(=O)c4c(O)ccc(Cl)c4[C@@](C)(O)[C@H]3C[C@@H]12 [Clortetracycline]	0.199	-0.035	0.104	0.119	–	–	–	–
CC1(C)S[C@@H]2[C@H](NC(=O)Cc3ccccc3)C(=O)N2[C@H]1C(=O)O [PenicillinG] + CN[C@H](CC(C)C)C(=O)N[C@H]1C(=O)N[C@@H](CC(N)=O)C(=O)N[C@H]2C(=O)N[C@H]3C(=O)N[C@H](C(=O)N[C@H](C(=O)O)c4cc(O)cc(O)c4-c4cc3ccc4O)[C@H](O)c3ccc(c(Cl)c3)Oc3cc2cc(c3O[C@@H]2O[C@H](CO)[C@@H](O)[C@H](O)[C@H]2O[C@H]2C[C@](C)(N)[C@H](O)[C@H](C)O2)Oc2ccc(cc2Cl)[C@H]1O [Vancomycin]	-0.039	-0.162	-0.0205	0.0603	–	–	–	–
N#CC(C#N)=NNc1cccc(Cl)c1 [CCCP] + CC(C1CCC(C(O1)OC2C(CC(C(C2O)OC3C(C(C(CO3)(C)O)NC)O)N)N)N)NC [Gentamicin]	–	–	–	–	0.259	0.0882	0.0926	0.116
CN(C)[C@@H]1C(O)=C(C(N)=O)C(=O)[C@@]2(O)C(O)=C3C(=O)c4c(O)ccc(Cl)c4[C@@](C)(O)[C@H]3C[C@@H]12 [Clortetracycline] + CN[C@H](CC(C)C)C(=O)N[C@H]1C(=O)N[C@@H](CC(N)=O)C(=O)N[C@H]2C(=O)N[C@H]3C(=O)N[C@H](C(=O)N[C@H](C(=O)O)c4cc(O)cc(O)c4-c4cc3ccc4O)[C@H](O)c3ccc(c(Cl)c3)Oc3cc2cc(c3O[C@@H]2O[C@H](CO)[C@@H](O)[C@H](O)[C@H]2O[C@H]2C[C@](C)(N)[C@H](O)[C@H](C)O2)Oc2ccc(cc2Cl)[C@H]1O [Vancomycin]	-0.0454	0.0542	-0.0315	0.0562	–	–	–	–
CC1(C)S[C@@H]2[C@H](NC(=O)Cc3ccccc3)C(=O)N2[C@H]1C(=O)O [PenicillinG] + COc1cc(Cc2cnc(N)nc2N)cc(OC)c1OC [Trimethoprim]	-0.131	0.101	-0.0299	-0.0822	–	–	–	–
CC1(C)S[C@@H]2[C@H](NC(=O)Cc3ccccc3)C(=O)N2[C@H]1C(=O)O [PenicillinG] + CCCCCCCCCC(=O)N[C@@H]1[C@H]([C@@H]([C@H](O[C@H]1OC2=C3C=C4C=C2OC5=C(C=C(C=C5)[C@H]([C@H]6C(=O)N[C@@H](C7=C(C(=CC(=C7)O)OC8[C@H]([C@H]([C@@H]([C@H](O8)CO)O)O)O)C9=C(C=CC(=C9)[C@H](C(=O)N6)NC(=O)[C@@H]4NC(=O)[C@@H]1C2=CC(=CC(=C2)OC2=C(C=CC(=C2)[C@H](C(=O)N[C@H](CC2=CC(=C(O3)C=C2)Cl)C(=O)N1)N)O)O)O)C(=O)O)O[C@H]1[C@@H]([C@H]([C@@H]([C@H](O1)CO)O)O)NC(=O)C)Cl)CO)O)O [Teicoplanin]	–	–	–	–	-0.176	-0.0521	-0.0396	0.0744
CC(=O)Oc1ccccc1C(=O)O [Acetylsalicylicacid] + CC(=O)NC[C@H]1CN(c2ccc(N3CCOCC3)c(F)c2)C(=O)O1 [Linezolid]	0.0401	0.145	-0.0728	0.0639	–	–	–	–
CC1(C)S[C@@H]2[C@H](NC(=O)Cc3ccccc3)C(=O)N2[C@H]1C(=O)O [PenicillinG] + CC[C@H]1OC(=O)[C@H](C)C(=O)[C@H](C)[C@@H](O[C@@H]2O[C@H](C)C[C@H](N(C)C)[C@H]2O)[C@](C)(OC)C[C@@H](C)C(=O)[C@H](C)[C@H]2N(CCCCn3cnc(-c4cccnc4)c3)C(=O)O[C@]12C [Telithromycin]	0.0511	0.0452	0.0277	-0.0465	–	–	–	–
N#CC(C#N)=NNc1cccc(Cl)c1 [CCCP] + Cn1nnc(-c2ccc(-c3ccc(N4C[C@H](CO)OC4=O)cc3F)cn2)n1 [Tedizolid]	-0.0578	0.044	-0.031	0.104	–	–	–	–
CN(C)[C@@H]1C(O)=C(C(N)=O)C(=O)[C@@]2(O)C(O)=C3C(=O)c4c(O)ccc(Cl)c4[C@@](C)(O)[C@H]3C[C@@H]12 [Clortetracycline] + Oc1cc(Cl)ccc1Oc1ccc(Cl)cc1Cl [Triclosan]	0.0578	0.117	-0.0936	0.021	–	–	–	–
CN(C)[C@@H]1C(O)=C(C(N)=O)C(=O)[C@@]2(O)C(O)=C3C(=O)c4c(O)ccc(Cl)c4[C@@](C)(O)[C@H]3C[C@@H]12 [Clortetracycline] + CN(N=O)C(=O)N[C@@H](C=O)[C@@H](O)[C@H](O)[C@H](O)CO [Streptozotocin]	0.073	-0.0534	0.0625	0.0347	–	–	–	–
